Earlier results as cited in patent EP4781989A1, “POSACONAZOLE SOLID DISPERSION AND PREPARATION METHOD THEREFOR” (BEIJING DELIVERY PHARMACEUTICAL TECHNOLOGY CO., LTD, priority 2023, dated 2024).
Like-named read-outs stand apart in the source and are kept apart here.

## CC[C@@H]([C@H](C)O)n1ncn(-c2ccc(N3CCN(c4ccc(OC[C@@H]5CO[C@@](Cn6cncn6)(c6ccc(F)cc6F)C5)cc4)CC3)cc2)c1=O [Posaconazole]
At about pH 6.4 or higher
  solubility: less than 1 µg/mL
Gastric environment with about pH 1
  solubility: about 0.8 mg/mL
